Assay type in all cases: cell-based
For assay [1], the system named is Botritis cinerea. The experiment in a line: In vitro mycelial/spore growth on potato-sucrose-agar, percent disease control (BC). As to conditions: read-out: % controlled, BC. The protocol: (§1) The compounds of this invention were dissolved respectively in acetone in an amount equal to 10% of the final volume and then in purified water at the concentration of 100 ppm and 50 ppm.
(§2) Each of the solution was mixed with potato-sucrose-agar medium in 6" petri dish and one of the fungi was spotted at the center of the dish. The dish was incubated in growth room for several days. The percent disease control was derived from the radii of spore growth. The screening tests in vitro condition are well-known to those skilled in the art.
(§3) The following fungi were used for the screening.
10) Bo. ci.; Botritis cinerea

For assay [2], the system named is Botryosphaeri. As to the kind of experiment: In vitro mycelial/spore growth on potato-sucrose-agar, percent disease control (BD). Conditions: read-out: % controlled, BD. The protocol:
as §1, §2, §3
4) Bo. do (Ma); Botryosphaeri

The subject of assay [3] is Rhizopus sp. The experiment in a line: In vitro mycelial/spore growth on potato-sucrose-agar, percent disease control (RS, second column). Conditions: read-out: % controlled, RS; for inhibition of growth at 50 ppm: Rhizopus sp.; for inhibition of growth at 200 ppm: Rhizopus. The protocol: as §1, §2, §3
9) Rhi. sp.; Rhizopus sp.

The test system of assay [4] is Phytophthora capsisi. The experiment in a line: In vitro mycelial/spore growth on potato-sucrose-agar, percent disease control (PC). Conditions: read-out: % controlled, PC. As for the experimental part:
as §1, §2, §3
2) Phy. ca.; Phytophthora capsisi

For assay [5], the system named is GC. As to the kind of experiment: In vitro mycelial/spore growth on potato-sucrose-agar, percent disease control (GC). As to conditions: read-out: % controlled, GC; for inhibition of growth at 50 ppm: GC. As for the experimental part: as §1, §2, §3
For assay [6], the system named is Rhizoctonia solani. The experiment in a line: In vitro mycelial/spore growth on potato-sucrose-agar, percent disease control (RS, first column). As to conditions: read-out: % controlled, RS. As for the experimental part:
as §1, §2, §3
7) Rhi. so.; Rhizoctonia solani

The test system of assay [7] is Pyricalaria oryzae. As to the kind of experiment: In vitro mycelial/spore growth on potato-sucrose-agar, percent disease control (PO). Conditions: read-out: % controlled, PO. As for the experimental part: as §1, §2, §3
6) Py. or.; Pyricalaria oryzae

For assay [8], the system named is Fusarium moniliforme. The experiment in a line: In vitro mycelial/spore growth on potato-sucrose-agar, percent disease control (FM). Conditions: Fusarium verticillioides, Fusarium moniliforme, read-out: % controlled, FM. The protocol:
as §1, §2, §3
8) Fu. mo.; Fusarium moniliforme

Structures are written as SMILES.

As for `Fc1ccc([Si]2(Cn3cncn3)CCCCC2)c(F)c1` [1-(2,4-difluorophenyl)-1-(1H-1,2,4-triazole-1-yl)methyl-1-silacyclohexane], the inhibition of growth at 50 ppm in assay [1] turned out to be 100%; in assay [2] it was 100%; in assay [3], 53%; in assay [4], 67%; in assay [5] it was 100%; in assay [6], 41%. Moreover, the inhibition of growth at 50 ppm in assay [7] and in assay [8] was 100% in each case. For the same compound, the inhibition of growth at 200 ppm in assay [1] turned out to be 100%; in assay [2], 100%; in assay [3] it was 61%; in assay [4], 89%; in assay [5], 100%; in assay [6], 61%. In addition, the inhibition of growth at 200 ppm in assay [7] and in assay [8] was 100% throughout.

In the case of `COc1ccc([Si]2(Cn3cncn3)CCCC2)cc1` [1-(4-methoxyphenyl)-1-(1H-1,2,4-triazole-1-yl)methyl-1-silacyclopentane], the inhibition of growth at 50 ppm in assay [1] came to 72%; in assay [2] it was 75%; in assay [3], 64%; in assay [4], 41%; in assay [5] it was 100%; in assay [6], 74%. The results for the inhibition of growth at 50 ppm in assay [7] and in assay [8] were 100% and 70%, respectively. Further, the inhibition of growth at 200 ppm in assay [1] is 77%; in assay [2], 79%; in assay [3], 75%; in assay [4] it was 100%; in assay [5] it was 100%; in assay [6], 100%. Besides, the inhibition of growth at 200 ppm in assay [7] was determined as 100%; in assay [8], 80%.

In the case of `CC(n1cncn1)[Si]1(c2ccc(C(F)(F)F)cc2)CCCCC1` (stereo not drawn) [1-(4-trifluoromethyl)-1-[α-(1H-1,2,4-triazole-1-yl)ethyl]-1-silacyclohexane], the inhibition of growth at 50 ppm in assay [1] stood at 66%; in assay [2], 100%; in assay [3], 47%; in assay [4], 39%; in assay [5] it was 100%; in assay [6], 99%. Moreover, the inhibition of growth at 50 ppm in assay [7] came out at 100%; in assay [8], 58%. Moreover, the inhibition of growth at 200 ppm in assay [1] worked out at 99%; in assay [2] it was 100%; in assay [3] it was 56%; in assay [4], 78%; in assay [5], 100%; in assay [6], 100%. Moreover, the values for the inhibition of growth at 200 ppm in assay [7] and in assay [8] were 100% and 99%, respectively.

Take `CCOc1ccc([Si]2(C(C)n3cncn3)CCCCC2)cc1` (stereo not drawn) [1-(4-ethoxyphenyl)-1-[α-(1H-1,2,4-triazole-1-yl)ethyl]-1-silacyclohexane]: the inhibition of growth at 50 ppm in assay [1] came out at 65%; in assay [2], 92%; in assay [3] it was 34%; in assay [4] it was 45%; in assay [5] it was 100%; in assay [6] it was 97%. The inhibition of growth at 50 ppm in assay [7] was determined as 100%; in assay [8], 65%. Besides, the inhibition of growth at 200 ppm came out at 98% in assay [1]; 100% in assay [2]; 56% in assay [3]; 75% in assay [4]; 100% in assay [5]; 100% in assay [6]. Moreover, the inhibition of growth at 200 ppm in assay [7] stood at 100%; in assay [8], 98%.

For the compound `CC(n1cncn1)[Si]1(c2ccc(C(F)(F)F)cc2)CCCC1` (stereo not drawn) [1-(4-trifluoromethyl)-1-[α-(1H-1,2,4-triazole-1-yl)ethyl]-1-silacyclopentane], the inhibition of growth at 50 ppm was found to be 94% in assay [1]; 90% in assay [2]; 56% in assay [3]; 86% in assay [4]; 100% in assay [5]; 92% in assay [6]. Also, the results for the inhibition of growth at 50 ppm in assay [7] and in assay [8] were 100% and 73%, respectively. The inhibition of growth at 200 ppm in assay [1] is 100%; in assay [2], 100%; in assay [3], 75%; in assay [4], 98%; in assay [5], 100%; in assay [6], 100%. In addition, the inhibition of growth at 200 ppm stood at 100% in assay [7] and 99% in assay [8].

`COc1ccc([Si]2(C(C)n3cncn3)CCCCC2)cc1` (stereo not drawn) [1-(4-methoxoyphenyl)-1-[α-(1H-1,2,4-triazole-1-yl)ethyl]-1-silacyclohexane]: the inhibition of growth at 50 ppm in assay [1] was determined as 64%; in assay [2], 92%; in assay [3], 49%; in assay [4], 55%; in assay [5] it was 100%; in assay [6] it was 93%. In addition, the inhibition of growth at 50 ppm in assay [7] is 100%; in assay [8], 94%. Also, the inhibition of growth at 200 ppm is 100% in assay [1]; 100% in assay [2]; 60% in assay [3]; 85% in assay [4]; 100% in assay [5]; 100% in assay [6]. Further, the inhibition of growth at 200 ppm in assay [7] turned out to be 100%; in assay [8], 98%.

In the case of `FC(F)(F)c1ccc([Si]2(Cn3cncn3)CCCCC2)cc1` [1-(4-trifluoromethyl)-1-(1H-1,2,4-triazole-1-yl)methyl-1-silacyclohexane], the inhibition of growth at 50 ppm is 93% in assay [1]; 100% in assay [2]; 63% in assay [3]; 75% in assay [4]; 100% in assay [5]; 54% in assay [6]. The inhibition of growth at 50 ppm in assay [7] came out at 100%; in assay [8], 82%. Moreover, the inhibition of growth at 200 ppm in assay [1] was 100%; in assay [2], 100%; in assay [3], 76%; in assay [4] it was 99%; in assay [5], 100%; in assay [6], 80%. Also, the inhibition of growth at 200 ppm is 100% in assay [7] and 98% in assay [8].

(Values after patent publication US5455356A, “Fungicidal 1-aryl-1-[α-(triazolyl)alkyl]-1-silacycloalkanes and their preparation methods” (priority 1993, dated 1995).)
